From patent US12527772B2, “Pharmaceutical combination comprising ponesimod” (Vanda Pharmaceuticals Inc., priority 2017, dated 2026)

Assays:
Assay type in all cases: in vivo
[1] = combination efficacy experiment, acute monophasic rat EAE model: body weight; conditions: ponesimod 30 mg/kg q.d. from day 0; over the 21 days study
Description: Groups of 10 rats are dosed orally starting at the day of disease induction (day 0) with different doses of teriflunomide in the range between 1 and 10 mg/kg once daily (q.d.) or with 30 mg/kg ponesimod q.d. Clinical scores are assessed on a daily basis and disease development is compared between vehicle-treated rats and rats receiving teriflunomide or ponesimod (vehicle: 0.5% Methylcellulose/0.5% Tween® 80/water). In parallel, body weights of the rats are monitored on a daily basis to follow general health. Hematology parameters, including lymphocyte counts, are measured at 3 different time points: 6 and 24 hours after the oral gavage at day 20 and at the termination of the experiment at day 21, 3 hours post dosing. Plasma samples can be taken for compound concentration determination and for the measurement of protein markers. The combination efficacy experiment is performed in the same rat EAE model as described for the first pilot experiment. It consists of four treatment groups: • 1. Vehicle (0.5% Methylcellulose/0.5% Tween® 80/water) q.d., from day 0 • 2. Teriflunomide (1 mg/kg) q.d., from day 0 • 3. Ponesimod (30 mg/kg) q.d., from day 0 • 4. Teriflunomide (1 mg/kg) q.d., from day 0+ponesimod (30 mg/kg) q.d., from day 0 In life and termination endpoints are the same as described for the first pilot experiment. […]

lymphocytes = experiment: first pilot experiment, rat EAE model: hematology, lymphocyte counts; conditions: ponesimod 30 mg/kg oral q.d.; over 24 hours
Description: (§1) Groups of 10 rats are dosed orally starting at the day of disease induction (day 0) with different doses of teriflunomide in the range between 1 and 10 mg/kg once daily (q.d.) or with 30 mg/kg ponesimod q.d. Clinical scores are assessed on a daily basis and disease development is compared between vehicle-treated rats and rats receiving teriflunomide or ponesimod (vehicle: 0.5% Methylcellulose/0.5% Tween® 80/water). In parallel, body weights of the rats are monitored on a daily basis to follow general health. Hematology parameters, including lymphocyte counts, are measured at 3 different time points: 6 and 24 hours after the oral gavage at day 20 and at the termination of the experiment at day 21, 3 hours post dosing. Plasma samples can be taken for compound concentration determination and for the measurement of protein markers. Based on the first pilot experiment described above one dose of teriflunomide is selected for the combination efficacy experiment.

[2] = test system: acute monophasic rat EAE model; experiment: combination efficacy experiment, acute monophasic rat EAE model: clinical scores; conditions: for efficacy on the clinical course of EAE (average clinical score, FIG. 1): each compound alone, ponesimod 30 mg/kg q.d., teriflunomide 1 mg/kg q.d., from day 0, 21 days study; for severity of the disease (maximal clinical score reached over the 21 days study, FIG. 2): ponesimod 30 mg/kg q.d. and/or teriflunomide 1 mg/kg q.d. from day 0
Description: Female Lewis rats are immunized with an emulsion of myelin basic protein (MBP) from Guinea pig in complete Freund's adjuvant. A total of 200 micrograms of MBP is injected per rat at two sites subcutaneously (right paw and base of tail). Within 10 days the rats develop signs of paralysis which will be graded on a scale from 0 to 15 assessing the tail and each limb individually according to the method originally described by Weaver A. et al., FASEB J., 2005, 19(12): 1668-1670. The disease takes an acute monophasic course and is self-remitting. Usually by day 21 clinical scores reach values below 3.0.
as §1, with “markers.” for “markers. Based on the first pilot experiment described above one dose of teriflunomide is selected for the combination efficacy experiment.”
The combination efficacy experiment is performed in the same rat EAE model as described for the first pilot experiment. It consists of four treatment groups: • 1. Vehicle (0.5% Methylcellulose/0.5% Tween® 80/water) q.d., from day 0 • 2. Teriflunomide (1 mg/kg) q.d., from day 0 • 3. Ponesimod (30 mg/kg) q.d., from day 0 • 4. Teriflunomide (1 mg/kg) q.d., from day 0+ponesimod (30 mg/kg) q.d., from day 0
In life and termination endpoints are the same as described for the first pilot experiment.
Data collected in the pilot experiment are similar to those obtained in the combination study and therefore are used to increase the monotherapy groups size in order to increase sensitivity as described by Bate S. et al., PLoS One., 2014, 9(12): e114872. […] When combined, the two compounds benefit from each other.

[3] = test system: acute monophasic models of experimental autoimmune encephalomyelitis (EAE); experiment: first pilot experiment, acute monophasic rat EAE model: clinical scores; conditions: female Lewis rats, teriflunomide 1 mg/kg oral q.d. from day 0
Description: The efficacy of teriflunomide and ponesimod in acute monophasic models of experimental autoimmune encephalomyelitis (EAE) can be determined in a pilot experiment. Female Lewis rats are immunized with an emulsion of myelin basic protein (MBP) from Guinea pig in complete Freund's adjuvant. A total of 200 micrograms of MBP is injected per rat at two sites subcutaneously (right paw and base of tail). Within 10 days the rats develop signs of paralysis which will be graded on a scale from 0 to 15 assessing the tail and each limb individually according to the method originally described by Weaver A. et al., FASEB J., 2005, 19(12): 1668-1670. The disease takes an acute monophasic course and is self-remitting. Usually by day 21 clinical scores reach values below 3.0. Groups of 10 rats are dosed orally starting at the day of disease induction (day 0) with different doses of teriflunomide in the range between 1 and 10 mg/kg once daily (q.d.) or with 30 mg/kg ponesimod q.d. Clinical scores are assessed on a daily basis and disease development is compared between vehicle-treated rats and rats receiving teriflunomide or ponesimod (vehicle: 0.5% Methylcellulose/0.5% Tween® 80/water). In parallel, body weights of the rats are monitored on a daily basis to follow general health. Hematology parameters, including lymphocyte counts, are measured at 3 different time points: 6 and 24 hours after the oral gavage at day 20 and at the termination of the experiment at day 21, 3 hours post dosing. Plasma samples can be taken for compound concentration determination and for the measurement of protein markers. Based on the first pilot experiment described above one dose of teriflunomide is selected for the combination efficacy experiment.

[4] = teriflunomide alone 1 mg/kg q.d. from day 0

| Structure (SMILES) | body weight loss (FIG. 3 and FIG. 4) [1] | reduction of lymphocytes (lymphocytes) | efficacy on the clinical course of EAE (average clinical score, FIG. 1) [2] | severity of the disease (maximal clinical score reached over the 21 days study, FIG. 2) [2] | effect on clinical score during the ascending phase (FIG. 1) ([2]; ponesimod 30 mg/kg q.d. from day 0) | disease onset [3] | efficacy on EAE scores [3] | severity of the disease [3] | disease onset (FIG. 1) [2, 4] | efficacy on EAE scores (FIG. 1 and FIG. 2) [2, 4] |
| --- | --- | --- | --- | --- | --- | --- | --- | --- | --- | --- |
| CCC/N=C1\S/C(=C\c2ccc(OC[C@H](O)CO)c(Cl)c2)C(=O)N1c1ccccc1C [ponesimod, (R)-5-[3-chloro-4-(2,3-dihydroxy-propoxy)-benz[Z]ylidene]-2-([Z]-propylimino)-3-o-tolyl-thiazolidin-4-one] | reduction in body weight loss | partial reduction of lymphocytes | moderate efficacy | no effect | moderate effect | – | – | – | – | – |
| C/C(O)=C(\C#N)C(=O)Nc1ccc(C(F)(F)F)cc1 [teriflunomide, (Z)-2-cyano-3-hydroxy-but-2-enoic acid-(4-trifluoromethylphenyl)-amide] | – | – | moderate efficacy | no effect | – | strong delay of disease onset | partial efficacy | without affecting the severity of the disease | strong delay of disease onset | partial efficacy |
